Results: the NIST ThermoML archive (doi:10.1016/j.jct.2016.07.008)
± gives the expanded uncertainty stated by the source.

Experiment: xn = mol fraction of the nth substance listed
Settings: Liquid, Vibrating wire viscometry, x1 = 1

SMILES: CCCCO [butan-1-ol] + CC(C)CC(C)(C)C
- viscosity (293.15 K, 100 kPa): 2.969 ± 0.047 mPa·s
- viscosity (293.15 K, 1000 kPa): 3.001 ± 0.048 mPa·s
- viscosity (293.15 K, 5000 kPa): 3.108 ± 0.049 mPa·s
- viscosity (293.15 K, 10000 kPa): 3.244 ± 0.052 mPa·s
- viscosity (293.15 K, 20000 kPa): 3.479 ± 0.055 mPa·s
- viscosity (293.15 K, 30000 kPa): 3.788 ± 0.06 mPa·s
- viscosity (293.15 K, 40000 kPa): 4.078 ± 0.065 mPa·s
- viscosity (293.15 K, 50000 kPa): 4.401 ± 0.07 mPa·s
- viscosity (293.15 K, 60000 kPa): 4.74 ± 0.075 mPa·s
- viscosity (293.15 K, 70000 kPa): 5.076 ± 0.08 mPa·s
- viscosity (293.15 K, 80000 kPa): 5.438 ± 0.086 mPa·s
- viscosity (293.15 K, 100000 kPa): 6.164 ± 0.097 mPa·s
- viscosity (293.15 K, 120000 kPa): 6.979 ± 0.11 mPa·s
- viscosity (293.15 K, 140000 kPa): 7.843 ± 0.12 mPa·s
- viscosity (298.15 K, 100 kPa): 2.601 ± 0.042 mPa·s
- viscosity (298.15 K, 1000 kPa): 2.622 ± 0.042 mPa·s
- viscosity (298.15 K, 5000 kPa): 2.715 ± 0.043 mPa·s
- viscosity (298.15 K, 10000 kPa): 2.834 ± 0.045 mPa·s
- viscosity (298.15 K, 20000 kPa): 3.079 ± 0.049 mPa·s
- viscosity (298.15 K, 30000 kPa): 3.333 ± 0.053 mPa·s
- viscosity (298.15 K, 40000 kPa): 3.599 ± 0.057 mPa·s
- viscosity (298.15 K, 50000 kPa): 3.874 ± 0.061 mPa·s
- viscosity (298.15 K, 60000 kPa): 4.16 ± 0.066 mPa·s
- viscosity (298.15 K, 70000 kPa): 4.455 ± 0.071 mPa·s
- viscosity (298.15 K, 80000 kPa): 4.761 ± 0.075 mPa·s
- viscosity (298.15 K, 100000 kPa): 5.404 ± 0.085 mPa·s
- viscosity (298.15 K, 120000 kPa): 6.087 ± 0.096 mPa·s
- viscosity (298.15 K, 140000 kPa): 6.811 ± 0.11 mPa·s
- viscosity (313.15 K, 100 kPa): 1.797 ± 0.029 mPa·s
- viscosity (313.15 K, 1000 kPa): 1.813 ± 0.029 mPa·s
- viscosity (313.15 K, 5000 kPa): 1.89 ± 0.03 mPa·s
- viscosity (313.15 K, 10000 kPa): 1.967 ± 0.032 mPa·s
- viscosity (313.15 K, 20000 kPa): 2.14 ± 0.034 mPa·s
- viscosity (313.15 K, 30000 kPa): 2.319 ± 0.037 mPa·s
- viscosity (313.15 K, 40000 kPa): 2.48 ± 0.04 mPa·s
- viscosity (313.15 K, 50000 kPa): 2.629 ± 0.042 mPa·s
- viscosity (313.15 K, 60000 kPa): 2.852 ± 0.045 mPa·s
- viscosity (313.15 K, 70000 kPa): 3.089 ± 0.049 mPa·s
- viscosity (313.15 K, 80000 kPa): 3.247 ± 0.052 mPa·s
- viscosity (313.15 K, 100000 kPa): 3.686 ± 0.058 mPa·s
- viscosity (313.15 K, 120000 kPa): 4.192 ± 0.066 mPa·s
- viscosity (313.15 K, 140000 kPa): 4.638 ± 0.073 mPa·s
- viscosity (323.15 K, 100 kPa): 1.429 ± 0.023 mPa·s
- viscosity (323.15 K, 1000 kPa): 1.44 ± 0.024 mPa·s
- viscosity (323.15 K, 5000 kPa): 1.491 ± 0.024 mPa·s
- viscosity (323.15 K, 10000 kPa): 1.556 ± 0.025 mPa·s
- viscosity (323.15 K, 20000 kPa): 1.69 ± 0.027 mPa·s
- viscosity (323.15 K, 30000 kPa): 1.829 ± 0.03 mPa·s
- viscosity (323.15 K, 40000 kPa): 1.975 ± 0.032 mPa·s
- viscosity (323.15 K, 50000 kPa): 2.125 ± 0.034 mPa·s
- viscosity (323.15 K, 60000 kPa): 2.281 ± 0.037 mPa·s
- viscosity (323.15 K, 70000 kPa): 2.443 ± 0.039 mPa·s
- viscosity (323.15 K, 80000 kPa): 2.61 ± 0.042 mPa·s
- viscosity (323.15 K, 100000 kPa): 2.962 ± 0.047 mPa·s
- viscosity (323.15 K, 120000 kPa): 3.335 ± 0.053 mPa·s
- viscosity (323.15 K, 140000 kPa): 3.682 ± 0.058 mPa·s
- viscosity (333.15 K, 100 kPa): 1.156 ± 0.019 mPa·s
- viscosity (333.15 K, 1000 kPa): 1.172 ± 0.019 mPa·s
- viscosity (333.15 K, 5000 kPa): 1.227 ± 0.02 mPa·s
- viscosity (333.15 K, 10000 kPa): 1.29 ± 0.021 mPa·s
- viscosity (333.15 K, 20000 kPa): 1.389 ± 0.023 mPa·s
- viscosity (333.15 K, 30000 kPa): 1.504 ± 0.025 mPa·s
- viscosity (333.15 K, 40000 kPa): 1.624 ± 0.026 mPa·s
- viscosity (333.15 K, 50000 kPa): 1.741 ± 0.028 mPa·s
- viscosity (333.15 K, 60000 kPa): 1.867 ± 0.03 mPa·s
- viscosity (333.15 K, 70000 kPa): 2.014 ± 0.032 mPa·s
- viscosity (333.15 K, 80000 kPa): 2.137 ± 0.034 mPa·s
- viscosity (333.15 K, 100000 kPa): 2.384 ± 0.038 mPa·s
- viscosity (333.15 K, 120000 kPa): 2.633 ± 0.042 mPa·s
- viscosity (333.15 K, 140000 kPa): 2.883 ± 0.046 mPa·s
- viscosity (348.15 K, 100 kPa): 0.8579 ± 0.015 mPa·s
- viscosity (348.15 K, 1000 kPa): 0.8647 ± 0.015 mPa·s
- viscosity (348.15 K, 5000 kPa): 0.8956 ± 0.015 mPa·s
- viscosity (348.15 K, 10000 kPa): 0.9349 ± 0.016 mPa·s
- viscosity (348.15 K, 20000 kPa): 1.016 ± 0.017 mPa·s
- viscosity (348.15 K, 30000 kPa): 1.101 ± 0.018 mPa·s
- viscosity (348.15 K, 40000 kPa): 1.189 ± 0.02 mPa·s
- viscosity (348.15 K, 50000 kPa): 1.28 ± 0.021 mPa·s
- viscosity (348.15 K, 60000 kPa): 1.375 ± 0.023 mPa·s
- viscosity (348.15 K, 70000 kPa): 1.473 ± 0.024 mPa·s
- viscosity (348.15 K, 80000 kPa): 1.575 ± 0.026 mPa·s
- viscosity (348.15 K, 100000 kPa): 1.788 ± 0.029 mPa·s
- viscosity (348.15 K, 120000 kPa): 2.015 ± 0.032 mPa·s
- viscosity (348.15 K, 140000 kPa): 2.255 ± 0.036 mPa·s
- viscosity (353.15 K, 100 kPa): 0.7903 ± 0.014 mPa·s
- viscosity (353.15 K, 1000 kPa): 0.7943 ± 0.014 mPa·s
- viscosity (353.15 K, 5000 kPa): 0.8284 ± 0.014 mPa·s
- viscosity (353.15 K, 10000 kPa): 0.8637 ± 0.015 mPa·s
- viscosity (353.15 K, 20000 kPa): 0.9473 ± 0.016 mPa·s
- viscosity (353.15 K, 30000 kPa): 1.04 ± 0.017 mPa·s
- viscosity (353.15 K, 40000 kPa): 1.102 ± 0.018 mPa·s
- viscosity (353.15 K, 50000 kPa): 1.21 ± 0.02 mPa·s
- viscosity (353.15 K, 60000 kPa): 1.295 ± 0.021 mPa·s
- viscosity (353.15 K, 70000 kPa): 1.384 ± 0.023 mPa·s
- viscosity (353.15 K, 80000 kPa): 1.473 ± 0.024 mPa·s
- viscosity (353.15 K, 100000 kPa): 1.676 ± 0.027 mPa·s
- viscosity (353.15 K, 120000 kPa): 1.857 ± 0.03 mPa·s
- viscosity (353.15 K, 140000 kPa): 2.037 ± 0.033 mPa·s
